Results as given in ChEMBL document CHEMBL1201862, “PubChem BioAssay data set” (2004).
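How tested: cells in 96-well plates exposed to compound for 48 hours at five concentrations. GI50 = concentration required for 50% inhibition of growth.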 Activity calls are given as the source filed them. Rule as the data show it: active = GI50 up to about 1.1 µM and inactive = higher. Where a SMILES comes first, the peptide text is derived from it. [ ]: non-standard residue; d: D form. The star is where a group is joined. ξ: configuration not given here. NMeF = CN[CH](Cc1ccccc1)C(=O)O; ξNMe2Val = CC(C)C(C(=O)*)N(C)C; NMeV = CN[CH](C(=O)O)C(C)C; OtBu = CC(C)(C)O*

Key:
Experiment in all cases: NCI anticancer screen, dose series, 48 h
KM-20L2 = test system: KM-20L2
DMS-273 = test system: DMS-273
DMS-114 = test system: DMS-114
HOP-18 = test system: HOP-18
LXFL 529 = test system: LXFL 529
M19-MEL = test system: M19-MEL
XF498 = test system: XF498
DLD-1 = test system: DLD-1
RXF 631 = test system: RXF 631

Compound | GI50 (KM-20L2) | GI50 (DMS-273) | GI50 (DMS-114) | GI50 (HOP-18) | GI50 (LXFL 529) | GI50 (M19-MEL) | GI50 (XF498) | GI50 (DLD-1) | GI50 (RXF 631)
CCc1cc(Cc2cc(Cl)c(NC(=O)C(=O)C3NC(=O)NC3=O)c(CC)c2)cc(Cl)c1NC(=O)C(=O)C1NC(=O)NC1=O (stereo unspecified) | 33.9 µM (inactive) | 20.4 µM (inactive) | 26.9 µM (inactive) | > 100 µM (inactive) | 45.1 µM (inactive) | 51.3 µM (inactive) |  |  | 
CCC(Oc1ccc(OC)c2c1C(=O)CCC2)C(=O)O (stereo unspecified) |  | > 100 µM (inactive) | > 100 µM (inactive) |  | > 100 µM (inactive) | > 100 µM (inactive) | > 100 µM (inactive) | > 100 µM (inactive) | 
CCCCCCCCCCC(O)[C@H]1CCC(C2CC[C@H]([C@H](O)CCCCCCCCCCC(O)CC3=CC(C)OC3=O)O2)O1 (stereo partly specified) | 3.33 µM (inactive) | 1.6 µM (inactive) | < 0.01 µM (active) |  | 2.54 µM (inactive) | 2.22 µM (inactive) |  | 3.67 µM (inactive) | 2.01 µM (inactive)
CC[C@]12C=CCN3CCC4(c5cc([C@@]6(C(=O)OC)CC7CN(CCc8c6[nH]c6ccccc86)C[C@@H]6CCC[C@H]76)c(OC)cc5N(C)C4[C@](O)(C(=O)OC)C1OC(C)=O)C32 (stereo partly specified) | 0.126 µM (active) |  | 0.225 µM (active) |  | 0.257 µM (active) | 0.267 µM (active) |  | 0.494 µM (active) | 
O=Cc1ccccc1OCCOc1cc(OCCOc2ccccc2C=O)c(OCCOc2ccccc2C=O)cc1OCCOc1ccccc1C=O | > 100 µM (inactive) | 52.2 µM (inactive) | 47.3 µM (inactive) | > 49.4 µM (inactive) | 33.7 µM (inactive) | > 100 µM (inactive) | > 39.1 µM (inactive) | 40.7 µM (inactive) | 
Oc1nnc(CNc2ccc(Cl)cc2Cl)c2ccccc12 | 25.6 µM (inactive) | 19.5 µM (inactive) | 13.9 µM (inactive) | 23.1 µM (inactive) | 17.1 µM (inactive) | 33 µM (inactive) |  | 21.2 µM (inactive) | > 100 µM (inactive)
Cc1nc(N)nc(CCC(=O)Nc2cccc(C(F)(F)F)c2)c1-c1ccc(Cl)cc1 | > 100 µM (inactive) | > 100 µM (inactive) | > 100 µM (inactive) | > 100 µM (inactive) | > 100 µM (inactive) | > 100 µM (inactive) | > 100 µM (inactive) | > 100 µM (inactive) | > 100 µM (inactive)
CC(=O)NC1=C(NCC(C)C)C(=O)c2ccccc2C1=O | 21.2 µM (inactive) | 14.4 µM (inactive) | 14.7 µM (inactive) | 12.8 µM (inactive) | 16.1 µM (inactive) | 18.7 µM (inactive) | 14 µM (inactive) | 19 µM (inactive) | 
COc1ccc(/C=C/C(=O)C(C)C)cc1 | 25.1 µM (inactive) | 38.5 µM (inactive) | 15.2 µM (inactive) | 41.4 µM (inactive) | 21.7 µM (inactive) | 59.6 µM (inactive) | > 100 µM (inactive) | 63.1 µM (inactive) | 
O=S1(=O)COc2ccccc2-c2ncncc21 | > 100 µM (inactive) |  | > 100 µM (inactive) | > 100 µM (inactive) | > 100 µM (inactive) | > 100 µM (inactive) |  | > 100 µM (inactive) | > 100 µM (inactive)
CC(C)N1CCC2(CC1)NNc1ncccc1-n1cccc12 |  | > 100 µM (inactive) | > 100 µM (inactive) | > 100 µM (inactive) |  | > 100 µM (inactive) | > 100 µM (inactive) | > 100 µM (inactive) | 
CC(C)C(C(=O)N(C)C(Cc1ccccc1)C(=O)N(C)C(C(=O)N(C)C(C(=O)N1CCCC1C(=O)OC(C)(C)C)C(C)C)C(C)C)N(C)C (stereo unspecified) (ξNMe2Val-[NMeF][NMeV][NMeV]P-OtBu; configuration not given here) | 20.8 µM (inactive) | 21 µM (inactive) | 31.7 µM (inactive) |  | 31.8 µM (inactive) | 78.3 µM (inactive) | 30.8 µM (inactive) |  | 
Cc1ccc(S(=O)(=O)N2CCCCC2CCO)cc1 (stereo unspecified) | > 100 µM (inactive) | > 100 µM (inactive) | > 100 µM (inactive) | > 100 µM (inactive) | > 100 µM (inactive) | > 100 µM (inactive) |  | > 100 µM (inactive) | 
COc1ccc(/C(Cl)=C(\c2ccc(OCCN(C)C)cc2)c2ccc(OC(=O)C(C)(C)C)cc2)cc1 | 3.41 µM (inactive) | 5.07 µM (inactive) | 12.2 µM (inactive) |  | 14 µM (inactive) | 13.7 µM (inactive) | 11.5 µM (inactive) | 13.6 µM (inactive) | 
CC[C@H]1CNC(=O)CC1CC(=O)OC (stereo partly specified) |  | > 100 µM (inactive) | > 100 µM (inactive) |  |  |  |  | > 100 µM (inactive) | > 100 µM (inactive)
COC(=O)C12C3C4C1C1C2C3C41I (stereo unspecified) | > 100 µM (inactive) |  | > 100 µM (inactive) | > 100 µM (inactive) | > 100 µM (inactive) | > 100 µM (inactive) | > 100 µM (inactive) | > 100 µM (inactive) | > 100 µM (inactive)
CCn1c(=O)c2ccccc2n2c(=O)c3cc4ccccc4cc3nc12 | > 100 µM (inactive) | > 100 µM (inactive) | > 100 µM (inactive) |  | > 100 µM (inactive) | > 100 µM (inactive) | 15.8 µM (inactive) | > 100 µM (inactive) | 
C[C@]12CC(C=O)C(=O)C(O)=C1CC[C@@H]1C2CC[C@@]2(C)C1CC[C@]2(C)O (stereo partly specified) | 22 µM (inactive) | 21.6 µM (inactive) | 16.5 µM (inactive) |  | 16.6 µM (inactive) | 20.1 µM (inactive) | 18.2 µM (inactive) | 8.55 µM (inactive) | 25.6 µM (inactive)
CN(C)/C=N\c1ccn(CCO)c(=O)n1 | > 100 µM (inactive) | > 100 µM (inactive) | > 100 µM (inactive) | > 100 µM (inactive) | > 100 µM (inactive) | > 100 µM (inactive) |  | > 100 µM (inactive) | > 100 µM (inactive)
ClC1c2ccccc2C2(c3ccccc3)OOC1(c1ccccc1)O2 (stereo unspecified) | 1.68 µM (inactive) | 1.52 µM (inactive) | 0.267 µM (active) |  |  |  |  |  | 
O=c1c2ccccc2nc(-c2ccccc2)n1NCC1(O)OCC(O)C(O)C1O (stereo unspecified) | > 100 µM (inactive) | 60.5 µM (inactive) | > 100 µM (inactive) | > 100 µM (inactive) | > 100 µM (inactive) | 49.8 µM (inactive) |  | > 100 µM (inactive) | 
C1CCC(N=C2N(C3CCCCC3)C(=NC3CCCCC3)N2C2CCCCC2)CC1 | > 100 µM (inactive) | > 100 µM (inactive) | > 100 µM (inactive) | > 100 µM (inactive) | > 100 µM (inactive) | > 100 µM (inactive) | > 100 µM (inactive) | > 100 µM (inactive) | 
